{
  "source": "patent US20160183526A1",
  "about": "“FUNGICIDAL COMPOSITIONS” (Dow AgroSciences LLC, priority 2014, published 2016)",
  "assay_type_in_all_cases": "physicochemical",
  "key": {"[1]": {"experiment": "Approximate relative solubility of active ingredients in organic solvents at ambient temperature", "method": "The approximate solubility of Compound A was determined by mixing a known mass of the active ingredient with an increasing mass of each solvent at ambient temperature. […] The solubility of Compound A in the solvents used in this screening procedure was generally classified within the following concentration ranges: […]"}, "[2]": {"experiment": "Solubility of a mixture of Compound A and prothioconazole in benzyl acetate/AMD810 blends at 10° C. (HPLC)", "conditions": "both actives saturated", "method": "A study of the Compound A and prothioconazole solubility in blends of benzyl acetate/AMD810 was conducted. To each solvent blend both actives were added until each was saturated and the resulting mixtures were then stored at 10° C. until equilibrium was obtained. Aliquots of the supernatant layer were taken from each sample, filtered (0.45 μm mesh) and analyzed by HPLC to determine the solution concentration of each active in the blends."}, "[3]": {"experiment": "Solubility of Compound A and prothioconazole in benzyl acetate/AMD810/cyclohexanone blends at 10° C.", "conditions": "one week", "method": "A total of 20 g of each solvent blend was prepared per sample. For example, one of the blends (Blend 4) was prepared by combining cyclohexanone 0.2 (4 g), benzyl acetate 0.2 (4 g) and AMD810 0.6 (12 g). To Blend 4 were added amounts of Compound A and prothioconazole technical active ingredients to achieve saturation concentrations of each. The samples were then stored at 10° C. for one week and then were analysed for soluble active ingredient content."}, "[4]": {"experiment": "Accelerated storage stability of Compound A in liquid compositions, 2 weeks at 54° C. (HPLC)", "conditions": "2 weeks 54° C.", "method": "The test compositions were prepared in a manner similar to that described in Example 1 using one or more of Compound A, prothioconazole, pyraclostrobin, benzyl acetate, and AMD 810, and a third solvent chosen from cyclohexanone, acetophenone, 2-heptanone, 2-heptanol, oleyl alcohol or 2-ethylhexanol."}, "[5]": {"experiment": "Approximate relative solubility of active ingredients in organic solvents at ambient temperature", "remark": "listed apart in the source"}},
  "data": [
    {"compound": "COc1ccnc(C(=O)N[C@H]2COC(=O)[C@H](Cc3ccccc3)[C@@H](OC(=O)C(C)C)[C@H](C)OC2=O)c1OCOC(=O)C(C)C", "note": "[Compound A, propanoic acid, 2-methyl-, [[4-methoxy-2-[[[(3S,7R,8R,9S)-9-methyl-8-(2-methyl-1-oxopropoxy)-2,6-dioxo-7-(phenylmethyl)-1,5-dioxonan-3-yl]amino]carbonyl]-3-pyridinyl]oxy]methyl ester]", "values": [
      {"measurement": "Compound A content of clear solution", "setting": "[1]; 0.2 g Compound A mixed with 1.38 g cyclohexanone", "value": 12.6, "unit": "% w/w"},
      {"measurement": "Relative Solubility of Compound A", "setting": "[1]; in 2-ethylhexanol", "value": "Very Low (<3.0)"},
      {"measurement": "Relative Solubility of Compound A", "setting": "[1]; in Alkyl naphthalene mixture", "value": "Very Low (<3.0)"},
      {"measurement": "Relative Solubility of Compound A", "setting": "[1]; in Benzyl acetate", "value": "High (>8.4)"},
      {"measurement": "Relative Solubility of Compound A", "setting": "[1]; in Cyclohexanone", "value": "High (>8.4)"},
      {"measurement": "Relative Solubility of Compound A", "setting": "[1]; in Isoparaffin", "value": "Very Low (<3.0)"},
      {"measurement": "Relative Solubility of Compound A", "setting": "[1]; in Isopropyl benzoate", "value": "Medium (8.4 to 5.6)"},
      {"measurement": "Relative Solubility of Compound A", "setting": "[1]; in Methyl oleate", "value": "Very Low (<3.0)"},
      {"measurement": "Relative Solubility of Compound A", "setting": "[1]; in Methyl-5-(Dimethylamino)-2-Methyl-5-Oxopentanoate", "value": "High (>8.4)"},
      {"measurement": "Relative Solubility of Compound A", "setting": "[1]; in Pentanedioic acid, 2-methyl-1, 5-dimethyl ester", "value": "Medium (8.4 to 5.6)"},
      {"measurement": "Relative Solubility of Compound A", "setting": "[1]; in Tributoxyethyl phosphate", "value": "Low (5.6 to 3.0)"},
      {"measurement": "Compound A Solubility at 10° C.", "setting": "[2]; benzyl acetate 0 wt % in blend with AMD810", "value": 3.3, "unit": "% w/w"},
      {"measurement": "Compound A Solubility at 10° C.", "setting": "[2]; benzyl acetate 20 wt % in blend with AMD810", "value": 4.3, "unit": "% w/w"},
      {"measurement": "Compound A Solubility at 10° C.", "setting": "[2]; benzyl acetate 40 wt % in blend with AMD810", "value": 6.5, "unit": "% w/w"},
      {"measurement": "Compound A Solubility at 10° C.", "setting": "[2]; benzyl acetate 60 wt % in blend with AMD810", "value": 11.0, "unit": "% w/w"},
      {"measurement": "Compound A Solubility at 10° C.", "setting": "[2]; benzyl acetate 80 wt % in blend with AMD810", "value": 12.0, "unit": "% w/w"},
      {"measurement": "Compound A Solubility at 10° C.", "setting": "[2]; benzyl acetate 100 wt % in blend with AMD810", "value": 14.3, "unit": "% w/w"},
      {"measurement": "Compound A Solubility @ 10° C.", "setting": "[3]; Blend 1: cyclohexanone 0/benzyl acetate 0/AMD810 1 (weight fraction)", "value": 3.3, "unit": "% w/w"},
      {"measurement": "Compound A Solubility @ 10° C.", "setting": "[3]; Blend 2: cyclohexanone 0/benzyl acetate 0.2/AMD810 0.8 (weight fraction)", "value": 4.3, "unit": "% w/w"},
      {"measurement": "Compound A Solubility @ 10° C.", "setting": "[3]; Blend 3: cyclohexanone 0.2/benzyl acetate 0/AMD810 0.8 (weight fraction)", "value": 4.5, "unit": "% w/w"},
      {"measurement": "Compound A Solubility @ 10° C.", "setting": "[3]; Blend 4: cyclohexanone 0.2/benzyl acetate 0.2/AMD810 0.6 (weight fraction)", "value": 6.2, "unit": "% w/w"},
      {"measurement": "Compound A Solubility @ 10° C.", "setting": "[3]; Blend 5: cyclohexanone 0/benzyl acetate 0.4/AMD810 0.6 (weight fraction)", "value": 6.5, "unit": "% w/w"},
      {"measurement": "Compound A Solubility @ 10° C.", "setting": "[3]; Blend 6: cyclohexanone 0.2/benzyl acetate 0.4/AMD810 0.4 (weight fraction)", "value": 10.5, "unit": "% w/w"},
      {"measurement": "Compound A Solubility @ 10° C.", "setting": "[3]; Blend 7: cyclohexanone 0/benzyl acetate 0.6/AMD810 0.4 (weight fraction)", "value": 11, "unit": "% w/w"},
      {"measurement": "Compound A Solubility @ 10° C.", "setting": "[3]; Blend 8: cyclohexanone 0/benzyl acetate 0.8/AMD810 0.2 (weight fraction)", "value": 12, "unit": "% w/w"},
      {"measurement": "Compound A Solubility @ 10° C.", "setting": "[3]; Blend 10: cyclohexanone 0.2/benzyl acetate 0.6/AMD810 0.2 (weight fraction)", "value": 13.6, "unit": "% w/w"},
      {"measurement": "Compound A Solubility @ 10° C.", "setting": "[3]; Blend 11: cyclohexanone 0/benzyl acetate 1/AMD810 0 (weight fraction)", "value": 14.3, "unit": "% w/w"},
      {"measurement": "Compound A Solubility @ 10° C.", "setting": "[3]; Blend 12: cyclohexanone 0.2/benzyl acetate 0.8/AMD810 0 (weight fraction)", "value": 15.2, "unit": "% w/w"},
      {"measurement": "Compound A after Storage (% retention)", "setting": "[4]; wt %: Compound A 3.4, AMD 810 96.0", "value": "49^ % retention"},
      {"measurement": "Compound A after Storage (% retention)", "setting": "[4]; wt %: Compound A 4.1, pyraclostrobin 5.2, benzyl acetate 37.0, AMD 810 20.0, cyclohexanone 8.2, emulsifier blend 14.7", "value": "93^2 % retention"},
      {"measurement": "Compound A after Storage (% retention)", "setting": "[4]; wt %: Compound A 4.9, benzyl acetate 94.1", "value": "85^ % retention"},
      {"measurement": "Compound A after Storage (% retention)", "setting": "[4]; wt %: Compound A 4.9, prothioconazole 7.4, benzyl acetate 46.8, AMD 810 25.2, no third solvent, emulsifier blend 14.7", "value": "91^2 % retention"},
      {"measurement": "Compound A after Storage (% retention)", "setting": "[4]; wt %: Compound A 4.9, pyraclostrobin 5.0, benzyl acetate 48.4, AMD 810 26.0, no third solvent, emulsifier blend 14.7", "value": "92^2 % retention"},
      {"measurement": "Compound A after Storage (% retention)", "setting": "[4]; wt %: Compound A 4.9, pyraclostrobin 6.3, benzyl acetate 41.2, AMD 810 22.2, cyclohexanone 9.8", "value": "98^ % retention"},
      {"measurement": "Compound A after Storage (% retention)", "setting": "[4]; wt %: Compound A 4.9, pyraclostrobin 6.3, benzyl acetate 44.4, AMD 810 23.9, 2-ethyl hexanol 4.9, emulsifier blend 14.7", "value": "96^2 % retention"},
      {"measurement": "Compound A after Storage (% retention)", "setting": "[4]; wt %: Compound A 4.9, pyraclostrobin 6.3, benzyl acetate 44.4, AMD 810 23.9, 2-heptanol 4.9, emulsifier blend 14.7", "value": "94^2 % retention"},
      {"measurement": "Compound A after Storage (% retention)", "setting": "[4]; wt %: Compound A 4.9, pyraclostrobin 6.3, benzyl acetate 44.4, AMD 810 23.9, 2-heptanone 4.9, emulsifier blend 14.7", "value": "93^2 % retention"},
      {"measurement": "Compound A after Storage (% retention)", "setting": "[4]; wt %: Compound A 4.9, pyraclostrobin 6.3, benzyl acetate 44.4, AMD 810 23.9, acetophenone 4.9, emulsifier blend 14.7", "value": "94^2 % retention"},
      {"measurement": "Compound A after Storage (% retention)", "setting": "[4]; wt %: Compound A 4.9, pyraclostrobin 6.3, benzyl acetate 44.4, AMD 810 23.9, oleyl alcohol 4.9, emulsifier blend 14.7", "value": "92^2 % retention"},
      {"measurement": "Compound A after Storage (% retention)", "setting": "[4]; wt %: Compound A 5.0, pyraclostrobin 6.4, benzyl acetate 40.9, AMD 810 22.0, 2-ethyl hexanol 10.0", "value": "95^ % retention"},
      {"measurement": "Compound A after Storage (% retention)", "setting": "[4]; wt %: Compound A 7.7, pyraclostrobin 9.8, benzyl acetate 37.1, AMD 810 20.0, cyclohexanone 9.6", "value": "97^ % retention"},
      {"measurement": "Compound A after Storage (% retention)", "setting": "[4]; wt %: Compound A 7.8, pyraclostrobin 9.9, benzyl acetate 36.7, AMD 810 19.8, 2-ethyl hexanol 9.7", "value": "97^ % retention"},
      {"measurement": "Compound A after Storage (% retention)", "setting": "[4]; wt %: Compound A 12.0, cyclohexanone 85.7", "value": "96^ % retention"},
      {"measurement": "Relative Solubility of Compound A", "setting": "[5]; in 2-ethylhexyl benzoate", "value": "Very Low (<3.0)"},
      {"measurement": "Relative Solubility of Compound A", "setting": "[5]; in 2-ethylhexyl lactate", "value": "Very Low (<3.0)"},
      {"measurement": "Relative Solubility of Compound A", "setting": "[5]; in 2-heptanone", "value": "Medium (8.4 to 5.6)"},
      {"measurement": "Relative Solubility of Compound A", "setting": "[5]; in Benzyl alcohol", "value": "High (>8.4)"},
      {"measurement": "Relative Solubility of Compound A", "setting": "[5]; in Butyl benzoate", "value": "Medium (8.4 to 5.6)"},
      {"measurement": "Relative Solubility of Compound A", "setting": "[5]; in Butyl lactate", "value": "Medium (8.4 to 5.6)"},
      {"measurement": "Relative Solubility of Compound A", "setting": "[5]; in Butylene carbonate", "value": "Very Low (<3.0)"},
      {"measurement": "Relative Solubility of Compound A", "setting": "[5]; in Di-n-butyl carbonate", "value": "Very Low (<3.0)"},
      {"measurement": "Relative Solubility of Compound A", "setting": "[5]; in Diethylene glycol monoethyl ether", "value": "Low (5.6 to 3.0)"},
      {"measurement": "Relative Solubility of Compound A", "setting": "[5]; in Ethyl Diglycol Acetate", "value": "Low (5.6 to 3.0)"},
      {"measurement": "Relative Solubility of Compound A", "setting": "[5]; in Methyl salicylate", "value": "High (>8.4)"},
      {"measurement": "Relative Solubility of Compound A", "setting": "[5]; in N,N dimethyl fatty acid amides", "value": "Low (5.6 to 3.0)"},
      {"measurement": "Relative Solubility of Compound A", "setting": "[5]; in N-formyl morpholine and propylene carbonate", "value": "High (>8.4)"},
      {"measurement": "Relative Solubility of Compound A", "setting": "[5]; in Polyethylene glycol", "value": "Very Low (<3.0)"},
      {"measurement": "Relative Solubility of Compound A", "setting": "[5]; in Polypropylene glycol", "value": "Very Low (<3.0)"},
      {"measurement": "Relative Solubility of Compound A", "setting": "[5]; in Propylene carbonate", "value": "Very Low (<3.0)"},
      {"measurement": "Relative Solubility of Compound A", "setting": "[5]; in Soybean oil", "value": "Very Low (<3.0)"},
      {"measurement": "Relative Solubility of Compound A", "setting": "[5]; in Sulfolane", "value": "High (>8.4)"},
      {"measurement": "Relative Solubility of Compound A", "setting": "[5]; in dimethyl esters of adipic, glutaric and succinic acids", "value": "Low (5.6 to 3.0)"}
    ]}
  ]
}
